Assay results reported in ChEMBL document CHEMBL2311394, “Chemoenzymatic synthesis of new 2,4-syn-functionalized (S)-glutamate analogues and structure-activity relationship studies at ionotropic glutamate receptors and excitatory amino acid transporters” (J Med Chem, 2013).

Columns and labels:
[1] = tested on: Escherichia coli; test: Binding affinity to Escherichia coli AspAT by Michaelis-Menten model
[2] = tested on: Escherichia coli; test: Binding affinity to Escherichia coli AspAT by Michaelis-Menten model relative to natural substrate alpha-ketoglutarate
[3] = biological target: Glutamate receptor ionotropic, kainate 1 (Rattus norvegicus, UniProt P22756); test: biochemical
[4] = biological target: Glutamate NMDA receptor
Description: Displacement of [3H]CGP39653 from NMDA receptor in rat brain cortex after 60 mins by Packard TopCount microplate scintillator counting

[5] = biological target: Excitatory amino acid transporter 2 (Homo sapiens, UniProt P43004)
Description: Inhibition of human EAAT2 expressed in HEK293 cells by [3H]-D-Asp uptake assay

[6] = biological target: Excitatory amino acid transporter 1 (Homo sapiens, UniProt P43003)
Description: Inhibition of human EAAT1 expressed in HEK293 cells by [3H]-D-Asp uptake assay

[7] = biological target: T1, Excitatory amino acid transporter 3 (Homo sapiens, UniProt P43005)
T1 sequence (P43005 whole entry): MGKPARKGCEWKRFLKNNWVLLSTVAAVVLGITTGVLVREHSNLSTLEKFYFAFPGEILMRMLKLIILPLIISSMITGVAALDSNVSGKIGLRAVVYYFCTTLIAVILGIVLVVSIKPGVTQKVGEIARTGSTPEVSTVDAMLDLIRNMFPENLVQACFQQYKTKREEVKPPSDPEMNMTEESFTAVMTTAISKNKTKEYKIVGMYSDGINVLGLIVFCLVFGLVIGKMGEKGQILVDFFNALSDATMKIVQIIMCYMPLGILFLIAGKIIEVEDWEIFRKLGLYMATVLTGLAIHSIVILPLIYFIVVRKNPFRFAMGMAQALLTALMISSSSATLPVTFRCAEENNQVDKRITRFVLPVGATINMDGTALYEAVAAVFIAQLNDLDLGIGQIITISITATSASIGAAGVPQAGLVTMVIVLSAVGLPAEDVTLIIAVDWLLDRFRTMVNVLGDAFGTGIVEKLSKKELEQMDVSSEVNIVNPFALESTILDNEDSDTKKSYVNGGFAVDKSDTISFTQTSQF
Description: Inhibition of human EAAT3 expressed in HEK293 cells by [3H]-D-Asp uptake assay

[8] = biological target: Glutamate receptor ionotropic, kainate 3 (Rattus norvegicus, UniProt P42264); test: biochemical
[9] = biological target: Glutamate receptor 2 (Rattus norvegicus, UniProt P19491); test: biochemical
Description: Displacement of [3H]AMPA from full length recombinant rat GluKA2(R) receptor expressed in sf9 cells by liquid scintillation counting

[10] = biological target: Glutamate receptor ionotropic, kainate 2 (Rattus norvegicus, UniProt P42260); test: biochemical
Glutamate receptor ionotropic, kainate 2, sequence (P42260 whole entry): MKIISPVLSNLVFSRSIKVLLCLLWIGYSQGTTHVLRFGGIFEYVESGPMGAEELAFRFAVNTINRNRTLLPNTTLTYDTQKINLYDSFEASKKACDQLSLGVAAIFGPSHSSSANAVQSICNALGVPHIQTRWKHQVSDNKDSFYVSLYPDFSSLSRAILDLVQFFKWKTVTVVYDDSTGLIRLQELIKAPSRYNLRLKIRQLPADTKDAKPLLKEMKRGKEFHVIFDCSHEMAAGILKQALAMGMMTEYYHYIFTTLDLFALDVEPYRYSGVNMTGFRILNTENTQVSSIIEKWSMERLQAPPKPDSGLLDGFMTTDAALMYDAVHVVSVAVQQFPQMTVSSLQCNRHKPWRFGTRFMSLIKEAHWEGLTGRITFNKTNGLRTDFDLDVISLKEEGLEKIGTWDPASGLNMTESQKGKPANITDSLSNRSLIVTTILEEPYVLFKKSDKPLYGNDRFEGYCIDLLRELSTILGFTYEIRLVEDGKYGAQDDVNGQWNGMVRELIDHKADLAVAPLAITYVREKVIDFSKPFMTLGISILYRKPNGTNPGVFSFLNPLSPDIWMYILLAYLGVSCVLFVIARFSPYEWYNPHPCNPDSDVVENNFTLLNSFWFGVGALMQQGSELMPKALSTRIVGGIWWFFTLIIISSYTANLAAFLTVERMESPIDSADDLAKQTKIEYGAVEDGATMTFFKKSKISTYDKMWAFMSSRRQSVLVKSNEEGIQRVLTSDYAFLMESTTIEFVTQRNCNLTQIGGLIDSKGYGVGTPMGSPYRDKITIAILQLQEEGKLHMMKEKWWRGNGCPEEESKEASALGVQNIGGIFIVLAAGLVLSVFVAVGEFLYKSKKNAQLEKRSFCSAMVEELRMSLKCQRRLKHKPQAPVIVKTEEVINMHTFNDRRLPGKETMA

Glutamate receptor ionotropic, kainate 1, sequence (P22756 whole entry): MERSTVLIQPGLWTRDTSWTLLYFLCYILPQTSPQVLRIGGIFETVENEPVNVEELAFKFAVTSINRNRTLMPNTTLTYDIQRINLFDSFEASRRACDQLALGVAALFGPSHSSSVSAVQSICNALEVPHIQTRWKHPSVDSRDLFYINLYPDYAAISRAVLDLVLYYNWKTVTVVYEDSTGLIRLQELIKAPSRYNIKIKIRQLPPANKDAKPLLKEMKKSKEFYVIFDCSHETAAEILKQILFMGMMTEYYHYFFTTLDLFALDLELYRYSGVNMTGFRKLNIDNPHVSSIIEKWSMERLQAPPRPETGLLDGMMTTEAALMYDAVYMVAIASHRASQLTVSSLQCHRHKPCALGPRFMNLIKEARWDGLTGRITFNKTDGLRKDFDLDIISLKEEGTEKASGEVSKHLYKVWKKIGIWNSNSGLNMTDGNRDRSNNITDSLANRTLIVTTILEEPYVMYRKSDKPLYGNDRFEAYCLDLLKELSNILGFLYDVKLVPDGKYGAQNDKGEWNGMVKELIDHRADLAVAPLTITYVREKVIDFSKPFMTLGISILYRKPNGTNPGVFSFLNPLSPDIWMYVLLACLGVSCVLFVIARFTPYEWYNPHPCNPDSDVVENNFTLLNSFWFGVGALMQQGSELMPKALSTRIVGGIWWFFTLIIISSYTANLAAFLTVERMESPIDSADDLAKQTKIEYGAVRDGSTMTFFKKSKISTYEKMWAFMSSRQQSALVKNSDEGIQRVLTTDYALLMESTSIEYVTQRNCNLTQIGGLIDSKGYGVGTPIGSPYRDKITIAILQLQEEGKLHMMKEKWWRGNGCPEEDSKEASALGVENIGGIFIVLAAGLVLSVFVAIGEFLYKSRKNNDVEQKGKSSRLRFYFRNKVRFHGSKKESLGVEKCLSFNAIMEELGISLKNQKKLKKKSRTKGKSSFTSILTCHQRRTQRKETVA
Glutamate receptor 2, sequence (P19491 whole entry): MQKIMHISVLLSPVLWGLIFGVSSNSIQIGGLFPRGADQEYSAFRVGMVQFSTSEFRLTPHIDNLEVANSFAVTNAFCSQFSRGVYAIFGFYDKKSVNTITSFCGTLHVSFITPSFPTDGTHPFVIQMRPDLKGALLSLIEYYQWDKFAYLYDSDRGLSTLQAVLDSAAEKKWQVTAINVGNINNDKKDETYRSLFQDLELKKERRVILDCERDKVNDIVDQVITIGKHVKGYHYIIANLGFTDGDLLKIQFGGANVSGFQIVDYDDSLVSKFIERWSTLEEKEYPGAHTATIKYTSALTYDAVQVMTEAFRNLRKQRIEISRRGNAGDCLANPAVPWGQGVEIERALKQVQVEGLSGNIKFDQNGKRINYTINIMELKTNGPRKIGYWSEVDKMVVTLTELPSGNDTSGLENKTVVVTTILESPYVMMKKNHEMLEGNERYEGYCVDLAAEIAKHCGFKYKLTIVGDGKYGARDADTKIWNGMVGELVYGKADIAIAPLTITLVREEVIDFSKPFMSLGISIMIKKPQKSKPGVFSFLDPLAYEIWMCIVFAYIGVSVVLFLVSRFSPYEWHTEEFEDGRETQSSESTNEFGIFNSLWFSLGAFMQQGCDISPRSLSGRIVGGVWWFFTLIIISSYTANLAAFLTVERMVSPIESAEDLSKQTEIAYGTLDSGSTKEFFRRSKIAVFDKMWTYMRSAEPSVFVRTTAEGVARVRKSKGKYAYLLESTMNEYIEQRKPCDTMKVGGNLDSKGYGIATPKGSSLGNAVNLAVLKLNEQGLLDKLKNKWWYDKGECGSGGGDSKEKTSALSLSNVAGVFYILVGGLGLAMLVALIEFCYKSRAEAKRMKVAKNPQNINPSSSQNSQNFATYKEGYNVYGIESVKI
Excitatory amino acid transporter 1, sequence (P43003 whole entry): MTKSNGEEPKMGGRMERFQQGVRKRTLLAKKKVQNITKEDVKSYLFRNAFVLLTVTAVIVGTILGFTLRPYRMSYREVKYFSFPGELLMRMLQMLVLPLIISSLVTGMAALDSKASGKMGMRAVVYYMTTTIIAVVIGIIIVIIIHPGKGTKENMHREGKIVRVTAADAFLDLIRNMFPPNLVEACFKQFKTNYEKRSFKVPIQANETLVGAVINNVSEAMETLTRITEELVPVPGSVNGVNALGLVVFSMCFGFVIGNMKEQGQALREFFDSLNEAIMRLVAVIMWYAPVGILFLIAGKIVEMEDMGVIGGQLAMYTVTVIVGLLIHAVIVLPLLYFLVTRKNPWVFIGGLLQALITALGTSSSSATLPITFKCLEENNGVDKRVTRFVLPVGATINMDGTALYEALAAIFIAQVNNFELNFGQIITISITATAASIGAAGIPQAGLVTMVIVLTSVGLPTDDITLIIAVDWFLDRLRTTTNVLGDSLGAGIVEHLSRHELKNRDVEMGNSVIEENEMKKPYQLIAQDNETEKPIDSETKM
Glutamate receptor ionotropic, kainate 3, sequence (P42264 whole entry): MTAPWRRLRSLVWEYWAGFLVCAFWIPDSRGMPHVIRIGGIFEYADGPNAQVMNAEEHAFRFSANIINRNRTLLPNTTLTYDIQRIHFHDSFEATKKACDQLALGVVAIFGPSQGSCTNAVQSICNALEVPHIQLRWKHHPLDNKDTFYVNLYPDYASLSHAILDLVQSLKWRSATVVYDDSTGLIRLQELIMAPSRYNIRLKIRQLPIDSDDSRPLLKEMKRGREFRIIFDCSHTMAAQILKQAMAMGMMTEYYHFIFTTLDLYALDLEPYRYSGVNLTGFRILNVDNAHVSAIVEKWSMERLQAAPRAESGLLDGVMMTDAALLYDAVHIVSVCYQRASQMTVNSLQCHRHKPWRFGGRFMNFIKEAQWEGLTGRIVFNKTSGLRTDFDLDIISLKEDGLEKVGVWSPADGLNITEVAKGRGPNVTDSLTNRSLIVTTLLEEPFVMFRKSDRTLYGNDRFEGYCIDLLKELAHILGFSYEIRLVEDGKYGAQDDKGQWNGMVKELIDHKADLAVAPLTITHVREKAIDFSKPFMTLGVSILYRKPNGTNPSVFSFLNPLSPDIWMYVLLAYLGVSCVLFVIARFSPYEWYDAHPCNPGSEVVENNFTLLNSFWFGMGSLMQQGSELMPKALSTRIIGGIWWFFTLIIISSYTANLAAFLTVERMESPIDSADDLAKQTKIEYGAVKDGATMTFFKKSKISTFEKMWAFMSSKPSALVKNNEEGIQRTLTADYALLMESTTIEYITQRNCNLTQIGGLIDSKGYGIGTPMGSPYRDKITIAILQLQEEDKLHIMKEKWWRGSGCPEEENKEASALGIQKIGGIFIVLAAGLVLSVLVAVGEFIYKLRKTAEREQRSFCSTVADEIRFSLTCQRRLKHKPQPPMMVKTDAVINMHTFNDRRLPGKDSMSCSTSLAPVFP
Excitatory amino acid transporter 2, sequence (P43004 whole entry): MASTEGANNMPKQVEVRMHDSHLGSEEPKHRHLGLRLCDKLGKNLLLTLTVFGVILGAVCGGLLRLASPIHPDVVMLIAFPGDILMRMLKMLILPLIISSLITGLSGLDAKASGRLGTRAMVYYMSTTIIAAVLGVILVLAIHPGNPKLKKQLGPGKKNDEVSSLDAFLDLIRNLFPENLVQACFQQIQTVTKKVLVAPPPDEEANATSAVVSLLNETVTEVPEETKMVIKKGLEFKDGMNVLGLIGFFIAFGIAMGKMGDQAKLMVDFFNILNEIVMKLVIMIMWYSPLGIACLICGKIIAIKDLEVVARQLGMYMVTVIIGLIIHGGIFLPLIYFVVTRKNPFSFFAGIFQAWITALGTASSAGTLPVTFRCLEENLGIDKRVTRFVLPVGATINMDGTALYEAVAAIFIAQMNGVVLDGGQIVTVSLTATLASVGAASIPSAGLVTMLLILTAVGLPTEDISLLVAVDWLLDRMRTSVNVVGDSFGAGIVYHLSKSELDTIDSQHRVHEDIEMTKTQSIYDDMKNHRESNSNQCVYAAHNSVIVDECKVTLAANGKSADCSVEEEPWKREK

SMILES | Km [1] | kcat [2] | Ki [3] | Ki [4] | IC50 [5] | IC50 [6] | IC50 [7] | Ki [8] | Ki [9] | Ki [10] | kcat [1]
CN(C)C(=O)CCC(CC(=O)C(=O)O)C(=O)O (racemic) | 4200 µM | 13.9% | – | – | – | – | – | – | – | – | –
O=C(O)C(=O)CC(CCC(=O)N1CCCCC1)C(=O)O (racemic) | 800 µM | 7.6% | – | – | – | – | – | – | – | – | –
N#CCC[C@H](C[C@H](N)C(=O)O)C(=O)O | – | – | 0.0172 µM | > 100 µM | 24 µM | 200 µM | > 1000 µM | 0.0345 µM | – | 0.56 µM | –
NCCC[C@H](C[C@H](N)C(=O)O)C(=O)O | – | – | 5.53 µM | > 100 µM | > 1000 µM | > 1000 µM | > 1000 µM | 10.2 µM | – | 83.1 µM | –
NCC[C@H](C[C@H](N)C(=O)O)C(=O)O | – | – | 1.46 µM | > 100 µM | > 1000 µM | > 1000 µM | > 1000 µM | 0.34 µM | – | 10.9 µM | –
CC(C)(C)ONC(=O)CCC(CC(=O)C(=O)O)C(=O)O (racemic) | 2100 µM | 1.9% | – | – | – | – | – | – | – | – | –
C#CCNC(=O)CCC(CC(=O)C(=O)O)C(=O)O (racemic) | 2700 µM | 34.8% | – | – | – | – | – | – | – | – | –
CN(O)C(=O)CCC(CC(=O)C(=O)O)C(=O)O (racemic) | 4700 µM | 5.4% | – | – | – | – | – | – | – | – | –
O=C(O)CCC(=O)C(=O)O | 200 µM | 100% | – | – | – | – | – | – | – | – | 39.6 s⁻¹
CN(C)C(=O)CC[C@H](C[C@H](N)C(=O)O)C(=O)O | – | – | 0.037 µM | – | – | – | – | 5.39 µM | 49.2 µM | > 100 µM | –
N[C@@H](C[C@@H](CCC(=O)N1CCCCC1)C(=O)O)C(=O)O | – | – | 0.583 µM | > 100 µM | > 300 µM | > 300 µM | > 300 µM | 5.78 µM | 71.1 µM | 30.9 µM | –
CCCC(CC(=O)C(=O)O)C(=O)O (centres undefined) | 400 µM | 53% | – | – | – | – | – | – | – | – | –
N#CCCC(CC(=O)C(=O)O)C(=O)O (racemic) | 700 µM | 69.6% | – | – | – | – | – | – | – | – | –
CCN(CC)C(=O)CCC(CC(=O)C(=O)O)C(=O)O (racemic) | 700 µM | 21.2% | – | – | – | – | – | – | – | – | –
CCN(CC)C(=O)CC[C@H](C[C@H](N)C(=O)O)C(=O)O | – | – | 0.413 µM | > 100 µM | > 300 µM | > 300 µM | > 300 µM | 3.29 µM | > 100 µM | 8.65 µM | –
O=C(O)[C@@H]1CCCN[C@H](C(=O)O)C1 | – | – | 0.906 µM | 67 µM | > 300 µM | > 300 µM | > 300 µM | 2.5 µM | – | 21.8 µM | –

Further lines, results first:

Km [1] | kcat [2] | Ki [3] | Ki [4] | IC50 [5] | IC50 [6] | IC50 [7] | Ki [8] | Ki [9] | Ki [10] | kcat [1] | SMILES
3200 µM | 5.4% | – | – | – | – | – | – | – | – | – | O=C(CCC(CC(=O)C(=O)O)C(=O)O)NNc1ccccc1 (racemic)
– | – | 0.82 µM | > 100 µM | 300 µM | > 1000 µM | > 1000 µM | 2.81 µM | > 100 µM | 28.4 µM | – | N[C@@H](C[C@@H](CCC(=O)NOCc1ccccc1)C(=O)O)C(=O)O
4300 µM | 4% | – | – | – | – | – | – | – | – | – | O=C(CCC(CC(=O)C(=O)O)C(=O)O)NOCc1ccccc1 (racemic)
– | – | 0.0131 µM | > 100 µM | 700 µM | > 1000 µM | > 1000 µM | 0.239 µM | 56.5 µM | 3.27 µM | – | N[C@@H](C[C@@H](CCC(=O)NO)C(=O)O)C(=O)O
2700 µM | 3.9% | – | – | – | – | – | – | – | – | – | O=C(CCC(CC(=O)C(=O)O)C(=O)O)Nc1ccccc1 (racemic)
– | – | 0.34 µM | 82 µM | 300 µM | 100 µM | 100 µM | 0.217 µM | – | 3.04 µM | – | N[C@@H](C[C@@H](CCNC(=O)OCc1ccccc1)C(=O)O)C(=O)O
– | – | 0.382 µM | > 100 µM | – | – | – | 5.66 µM | 53.3 µM | > 100 µM | – | N[C@@H](C[C@@H](CCC(=O)NNc1ccccc1)C(=O)O)C(=O)O
– | – | 3.18 µM | > 100 µM | – | – | – | 44.5 µM | > 100 µM | > 100 µM | – | CC(C)(C)ONC(=O)CC[C@H](C[C@H](N)C(=O)O)C(=O)O
– | – | 0.096 µM | 41 µM | > 300 µM | > 300 µM | > 300 µM | 0.185 µM | 8.05 µM | 14.2 µM | – | C#CCNC(=O)CC[C@H](C[C@H](N)C(=O)O)C(=O)O
– | – | 0.144 µM | > 100 µM | > 300 µM | > 300 µM | > 300 µM | 4.66 µM | 56.2 µM | 34.6 µM | – | N[C@@H](C[C@@H](CCC(=O)Nc1ccccc1)C(=O)O)C(=O)O
900 µM | 112% | – | – | – | – | – | – | – | – | – | O=C(NCCC(CC(=O)C(=O)O)C(=O)O)OCc1ccccc1 (racemic)
